# Results: patent US20240336565A1, “SOLID FORMS OF OSANETANT” (Acer Therapeutics, Inc., priority 2021, published 2024)
# Entries after “also recorded” stand apart in the source; their conditions may differ.
# Assays:
# [1] = Thermodynamic solubility in water and pH buffers
# [2] = Long term stability: thermal stability of solids at 60° C.; assay type: physicochemical; conditions: solids, darkened oven at 60° C., up to 14 days
# Protocol: (§1) Osanetant p-toluenesulfonic acid Form 1 and osanetant benzenesulfonic acid Form 1 were tested for long-term stability across a number of different conditions, as detailed below.
# Thermal stability of solids at 60° C.—Osanetant p-toluenesulfonic acid Form 1 and osanetant benzenesulfonic acid Form 1 were stored in a darkened oven at 60° C. in glass vials. Samples were taken after T=1, 2, 4, 7, and 14 days storage. […] The purity of the resulting material is described in Table 41: […]
# [3] = Solid form stability observations (scale up / polymorph work: drying, ambient conditions, aqueous media); assay type: physicochemical
# Protocol: Two anhydrous forms of the osanetant p-toluenesulfonic acid were synthesized. […] Form 6, described below, was a stable anhydrous form, but hydrated in water and aqueous solvent mixtures.
# Advantageously, Form 1 (hydrate) and Form 6 (anhydrous) were stable on drying. Form 1 re-hydrated at room temperature and pressure after KF analysis, when it was heated in an oven to remove the water.
# The experiment was cooled to 5° C. at a rate of 0.1° C./min and stirred at 5° C. for 18 h. The slurry was isolated be Buchner filtration: 42.5 mm Ø grade 1 Whatman filter paper; fast Filtration (<30 s); the cake was washed with 1 mL of ethyl acetate; the isolated solids were dried at 40° C. under vacuum for 72 h. […]
# [4] = Salt screen: XRPD of isolated solids after drying at 40° C. and at 40° C./75% RH; assay type: physicochemical
# In short: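 Amorphous lyophilized osanetant (~20 mg) slurried with 1.05 mol eq. counterion in solvent, thermally cycled 5–40 °C at 0.1 °C/min overnight. Solids isolated by centrifugation and analysed by XRPD, then re-analysed after ~24 h drying at 40 °C and again after ~24 h at 40 °C/75% RH.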
# [5] = Long term stability: oxidation (6% H2O2) at 60° C.; assay type: physicochemical; conditions: 6% H2O2, 60° C., up to 14 days
# Protocol: as §1
# (§2) Oxidation at 60° C.—Osanetant p-toluenesulfonic acid Form 1 and osanetant benzenesulfonic acid Form 1 were prepared at an osanetant content 10 times the normal working concentration then added to HPLC vials containing 6% H2O2 and stored in a darkened oven at 60° C. Samples were diluted to 2 mg/mL for analysis and were taken after T=1, 2, 4, 7, and 14 days storage. […] The purity of the resulting material is described in Table 47: […]
# [6] = Hygroscopicity / dynamic vapor sorption (DVS); assay type: physicochemical
# Protocol: The osanetant p-toluenesulfonic acid Form 1 solids consisted of aggregated crystals with an undefined morphology. Select peaks which can be used to characterize osanetant p-toluenesulfonic acid Form 1 include one or more of 11.4°2θ±0.2°2θ, 18.0°2θ±0.2°2θ, 19.0°2θ±0.2°2θ, 19.3°2θ±0.2°2θ, 19.8°2θ±0.2°2θ, or 21.1°2θ±0.2°2θ. In some embodiments, osanetant p-toluenesulfonic acid Form 1 is a monohydrate.
# [7] = Hydration study (stirring in ethanol: water mixtures, XRPD); assay type: physicochemical
# Protocol: (§3) 20 mg of osanetant p-toluenesulfonic acid Form 1 was stirred in the appropriate ethanol: water mixtures for 24 h at 25° C. Where clear solutions were observed after 1 h at 25° C., 0.5 mL of liquor was removed, and additional solid was added until a slurry was maintained. After 24 h total, the experiments were isolated by centrifugation, and the solids were analyzed by XRPD.
# as §3, with “Osanetant benzenesulfonic acid” for “20 mg of osanetant p-toluenesulfonic acid”, “Form 3 (20 mg)” for “Form 1”, “was removed from the Aw 0.257 sample,” for “was removed,”
# [8] = Long term stability: base (2M NaOH) at ambient temperature; assay type: physicochemical; conditions: 2M NaOH, dark, ambient, up to 14 days
# Protocol: as §1
# as §2, with “Base” for “Oxidation”, “Ambient Temperature—Osanetant” for “60° C.—Osanetant”, “2M NaOH” for “6% H2O2”, “the dark” for “a darkened oven”, “ambient laboratory conditions.” for “60° C.”, “44:” for “47:”
# [9] = Long term stability: oxidation (6% H2O2) at ambient temperature; assay type: physicochemical; conditions: 6% H2O2, dark, ambient, up to 14 days
# Protocol: as §1
# as §2, with “Ambient Temperature-Osanetant” for “60° C.—Osanetant”, “the dark” for “a darkened oven”, “ambient laboratory conditions.” for “60° C.”, “46:” for “47:”
# [10] = Comparative studies: 7-day stability; assay type: physicochemical
smiles,measurement,setting,value
"CC(=O)N(C)C1(c2ccccc2)CCN(CCC[C@]2(c3ccc(Cl)c(Cl)c3)CCCN(C(=O)c3ccccc3)C2)CC1.Cc1ccc(S(=O)(=O)O)cc1 [osanetant p-toluenesulfonic acid Form 1, (R)-N-(1-(3-(1-benzoyl-3-(3,4-dichlorophenyl)piperidin-3-yl)propyl)-4-phenylpiperidin-4-yl)-N-methylacetamide p-toluenesulfonic acid]",Solubility in water and pH buffers,[1],low
same,degradation on storage (purity),[2],lack of degradation
same,form stability / re-hydration under ambient conditions,[3]; ambient conditions / room temperature and pressure,re-hydrated
same,dehydration temperature,[3]; dehydrates to Form 5,above 85 °C
same,form on drying,[3]; drying (40° C. under vacuum where stated),stable; also recorded: no change
same,XRPD after drying at 40° C./75% RH,"[4]; after 40° C. drying, dried at 40° C./75% RH for about 24 h, label = form after 40° C. drying",retained; also recorded: stable; also recorded: Form 1
same,XRPD after drying at 40° C.,"[4]; isolated solids dried at 40° C. for about 24 h, label = wet form",retained; also recorded: Form 1
same,degradation on storage (purity),[5],lack of degradation
same,hygroscopicity / water loss on DVS analysis,[6],did not lose the water
same,weight gain (hygroscopicity),[6]; at 80% RH,0.2 wt. %
same,XRPD form after stirring in ethanol: water mixtures,"[7]; 24 h at 25° C., all mixtures tested",no change in form
same,XRPD,"[7]; slurry in ethanol:water 63.6:36.4 % v/v, calc Aw 0.745, 24 h at 25° C.",Form 1
same,XRPD,"[7]; slurry in ethanol:water 92.9:7.1 % v/v, calc Aw 0.507, 24 h at 25° C.",Form 1
same,XRPD,"[7]; slurry in ethanol:water 98.4:1.6 % v/v, calc Aw 0.257, 24 h at 25° C.",Form 1
same,degradation on storage (purity),[8],lack of degradation
same,degradation on storage (purity),[9],lack of degradation
same,impurities on 7-day stability,[10]; 80° C.,increase in impurities
same,solid form on 7-day stability,"[10]; 7 days, elevated temperature where stated",form was retained
same,physical stability,"[10]; in slurry at various water activity and pH, and at 40° C./75% RH and 80° C.",physically stable
